# In ChEMBL document CHEMBL1150538, “Anti HIV-1 activity of a hydrophilic cyclosporin derivative with improved binding affinity to cyclophilin A” (Bioorg Med Chem Lett, 1996):
# Tests used:
# AIK-T4 = test: In vitro inhibition of the cytopathic effect induced by HIV-1(IIIB) using the human T-cell leukemia virus transformed T4 cell line.; format: functional, cell-based
# Jurkat = test: In vitro immunosuppressive activity relative to cyclosporin A using interleukin-2 reporter gene assay was determined in a Jurkat cell line; format: functional, Homo sapiens
# Mus musculus = species: Mus musculus; test: In vitro immunosuppressive activity relative to cyclosporin A was determined by using mouse mixed lymphocyte reaction; format: functional
IC50 (AIK-T4) [µg/mL],Relative IC50 (Jurkat),Relative IC50 (Mus musculus),SMILES
0.12,–,–,C/C=C/C[C@@H](C)[C@@H](O)[C@H]1C(=O)N[C@@H](CC)C(=O)N(C)[C@H](CO)C(=O)N(C)[C@@H](CC(C)(C)O)C(=O)N[C@@H](C(C)C)C(=O)N(C)[C@@H](CC(C)C)C(=O)N[C@@H](C)C(=O)N[C@H](C)C(=O)N(C)[C@@H](CC(C)C)C(=O)N(C)[C@@H](CC(C)C)C(=O)N(C)[C@@H](C(C)C)C(=O)N1C [listing 1 of 2 here]
–,>770,>3333,C/C=C/C[C@@H](C)[C@@H](O)[C@H]1C(=O)N[C@@H](CC)C(=O)N(C)[C@H](CO)C(=O)N(C)[C@@H](CC(C)(C)O)C(=O)N[C@@H](C(C)C)C(=O)N(C)[C@@H](CC(C)C)C(=O)N[C@@H](C)C(=O)N[C@H](C)C(=O)N(C)[C@@H](CC(C)C)C(=O)N(C)[C@@H](CC(C)C)C(=O)N(C)[C@@H](C(C)C)C(=O)N1C [listing 2 of 2 here]
